Test results taken from US8623855B2, “Azetidinone compounds and medical use thereof” (Zhejiang Hisun Pharmaceutical Co., Ltd., priority 2009, dated 2014).
Read-outs that look alike come from different tables or passages of the source.

Tests used:
[1] = tested on: hypercholesterolemia golden hamster model; assay: In vivo pharmacodynamic screening in hypercholesterolemia model of golden hamster (plasma TC and LDL-C); details: for inhibition in vivo at 2 mg/kg / inhibition in vivo at 0.4 mg/kg / inhibition in vivo at 10 mg/kg: Table 2; for LDL-C after administration / TC after administration / LDL after administration: 1 week, plasma; for reduction of plasma TC and LDL-C levels (in words): significant statistical difference; for effect of lowering cholesterol (screening result in words): in vivo pharmacodynamic screening test, Ezetimibe as positive control
Protocol: 1. Establishment of Hypercholesterolemia Model of Golden Hamster:
The animals were subjected to acclimation feeding for 1 week with free feeding and drinking under a lighting condition of 10 h/14 h. On Day 8, the animals were raised with high fat feed (consisting of 0.5% cholesterol, 20% palm oil, 79.5% basal feed) for 1 week. Then, each animal was anesthetized by ether. After weighing, 0.5 ml blood was obtained from orbital vein, anticoagulated with heparin and centrifuged at 5000 rpm for 10 min. The plasma was collected and the levels of plasma TC (total cholesterol) and LDL-C (low density lipoprotein cholesterol) were determined by automatic biochemical analyzer. Animals with plasma TC of 9-15 mmol/L were selected as model animals (refer to the following reference for the method of animal modeling: Burrier, R. E., Smith, A. A., Mcgregor, D. G, Hoos, L. M., Zilli, D. L., Davis, H. R. The effect of acyl CoA: cholesterol acyltransferase inhibition on the uptake, esterification and secretion of cholesterol by the hamster small intestine. J. Pharm. Exp. Ther., 1995, 272, 156-163).
The animals were grouped according to TC and LDL-C levels and weight with 6 animals per group. Ezetimibe was used as positive control. The animals were intragastrically administered at a volume of 5 ml/kg for 1 week. Each animal was anesthetized by ether. After weighing, 0.5 ml blood was taken from orbital vein, anticoagulated with heparin, and centrifuged at 5000 rpm for 10 min. The plasma was collected and plasma TC (total cholesterol) and LDL-C (low density lipoprotein cholesterol) levels were determined by automatic biochemical analyzer to evaluate the efficacy of the compounds.

normal guinea pig = assay: Effect on blood lipid level of normal guinea pigs; format: in vivo; details: for HDL after administration / LDL after administration / TC after administration / TG after administration: Table 13
[2] = Mesocricetus auratus, po, 168 h, read-out: Reducing LDL-C %
[3] = Mesocricetus auratus, po, 168 h, read-out: Reducing TC %
[4] = Mesocricetus auratus, po, 168 h, Table 4, 1 mg/kg, read-out: Reducing TC %
[5] = Mesocricetus auratus, po, 168 h, Table 8, 1 mg/kg, read-out: Reducing LDL-C %
[6] = Mesocricetus auratus, po, 168 h, Table 8, 1 mg/kg, read-out: Reducing TC %
[7] = Table 1, baseline of group dosed 2 mg/kg
[8] = Table 11, baseline of group dosed 1 mg/kg
[9] = Table 1, 0.4 mg/kg intragastric
[10] = golden hamster hypercholesterolemic model

O=C1[C@H](CC[C@H](O)c2ccc(F)cc2)[C@@H](c2ccc(O)cc2)N1c1ccc(F)cc1 [Ezetimibe, reference compound]
inhibition in vivo at 2 mg/kg [1, 2]: 77.6% | inhibition in vivo at 2 mg/kg [1, 3]: 57.4% | inhibition in vivo at 1 mg/kg [1, 4]: 58.8% | inhibition in vivo at 1 mg/kg ([1]; Mesocricetus auratus, po, 168 h, Table 6, 1 mg/kg, read-out: Reducing LDL-C %): 76% | inhibition in vivo at 1 mg/kg ([1]; Mesocricetus auratus, po, 168 h, Table 6, 1 mg/kg, read-out: Reducing TC %): 58.3% | inhibition in vivo at 1 mg/kg [1, 5]: 64.2% | inhibition in vivo at 1 mg/kg [1, 6]: 48.1% | inhibition in vivo at 1 mg/kg ([1]; Mesocricetus auratus, po, 168 h, Table 10, 1 mg/kg, read-out: Reducing LDL-C %): 68.2% | inhibition in vivo at 1 mg/kg ([1]; Mesocricetus auratus, po, 168 h, Table 10, 1 mg/kg, read-out: Reducing TC %): 64.4% | inhibition in vivo at 1 mg/kg ([1]; Mesocricetus auratus, po, 168 h, Table 12, 1 mg/kg, read-out: Reducing LDL-C %): 60.8% | inhibition in vivo at 1 mg/kg ([1]; Mesocricetus auratus, po, 168 h, Table 12, 1 mg/kg, read-out: Reducing TC %): 58.5% | LDL-C after administration ([1]; Table 1, 2 mg/kg intragastric): 0.57 ± 0.34 mmol/L | TC after administration ([1]; Table 1, 2 mg/kg intragastric): 4.21 ± 0.68 mmol/L | LDL-C before administration [1, 7]: 2.55 ± 0.96 mmol/L | LDL after administration ([1]; Table 3, 1 mg/kg intragastric): 1.16 ± 0.44 mmol/L | TC after administration ([1]; Table 3, 1 mg/kg intragastric): 5.62 ± 0.48 mmol/L | Reducing LDL % ([1]; Table 4, 1 mg/kg): 36.0% | LDL after administration ([1]; Table 5, 1 mg/kg intragastric): 1.3 mmol/L | TC after administration ([1]; Table 5, 1 mg/kg intragastric): 4.51 mmol/L | LDL after administration ([1]; Table 7, 1 mg/kg intragastric): 1.62 mmol/L | TC after administration ([1]; Table 7, 1 mg/kg intragastric): 5.58 mmol/L | LDL after administration ([1]; Table 9, 1 mg/kg intragastric): 1.0 mmol/L | TC after administration ([1]; Table 9, 1 mg/kg intragastric): 5.45 mmol/L | LDL-C after administration ([1]; Table 11, 1 mg/kg intragastric): 1.13 | TC after administration ([1]; Table 11, 1 mg/kg intragastric): 5.29 | LDL-C before administration [1, 8]: 2.88 ± 0.79 | TC before administration [1, 8]: 12.74 ± 1.44 | HDL after administration (normal guinea pig; 2.5 mg/kg): 0.41 mmol/L | LDL after administration (normal guinea pig; 2.5 mg/kg): 0.99 mmol/L | TC after administration (normal guinea pig; 2.5 mg/kg): 1.14 ± 0.24 mmol/L | TG after administration (normal guinea pig; 2.5 mg/kg): 0.41 ± 0.12 mmol/L

O=C1[C@H](C/C=C(\CO)c2ccc(F)cc2)[C@@H](c2ccc(O)cc2)N1c1ccc(F)cc1 [I-1(Z), (3R,4S)-1-(4-fluorophenyl)-3-[(Z)-3-(4-fluorophenyl)-4-hydroxy-but-2-enyl]-4-(4-hydroxyphenyl)azetidin-2-one]
inhibition in vivo at 0.4 mg/kg [1, 2]: 32.7% | inhibition in vivo at 0.4 mg/kg [1, 3]: 33.7% | inhibition in vivo at 2 mg/kg [1, 2]: 72.4% | inhibition in vivo at 2 mg/kg [1, 3]: 49.7% | inhibition in vivo at 10 mg/kg [1, 2]: 83.1% | inhibition in vivo at 10 mg/kg [1, 3]: 55.9% | inhibition in vivo at 1 mg/kg [1, 4]: 57.5% | inhibition in vivo at 4 mg/kg ([1]; Mesocricetus auratus, po, 168 h, Table 4, 4 mg/kg, read-out: Reducing TC %): 67.9% | LDL-C after administration [1, 9]: 1.52 ± 0.31 mmol/L | TC after administration [1, 9]: 6.46 ± 0.58 mmol/L | LDL-C after administration ([1]; Table 1, 2 mg/kg intragastric): 0.71 ± 0.49 mmol/L | TC after administration ([1]; Table 1, 2 mg/kg intragastric): 4.9 ± 0.62 mmol/L | LDL-C after administration ([1]; Table 1, 10 mg/kg intragastric): 0.42 ± 0.2 mmol/L | TC after administration ([1]; Table 1, 10 mg/kg intragastric): 4.3 ± 0.85 mmol/L | LDL-C before administration ([1]; Table 1, baseline of group dosed 0.4 mg/kg): 2.26 ± 0.65 mmol/L | LDL-C before administration [1, 7]: 2.57 ± 0.47 mmol/L | LDL-C before administration ([1]; Table 1, baseline of group dosed 10 mg/kg): 2.48 ± 0.67 mmol/L | LDL after administration ([1]; Table 3, 1 mg/kg intragastric): 1.19 ± 0.16 mmol/L | TC after administration ([1]; Table 3, 1 mg/kg intragastric): 5.79 ± 0.99 mmol/L | LDL after administration ([1]; Table 3, 4 mg/kg intragastric): 0.99 ± 0.28 mmol/L | TC after administration ([1]; Table 3, 4 mg/kg intragastric): 4.37 ± 0.59 mmol/L | Reducing LDL % ([1]; Table 4, 1 mg/kg): 35.7% | Reducing LDL % ([1]; Table 4, 4 mg/kg): 46.2% | effect compared with positive control Ezetimibe at the same dose (in words) ([1]; golden hamster hypercholesterolemic model, same dose): the same as that of the positive control | reduction of plasma TC and LDL-C levels (in words) [1, 10]: can significantly reduce the plasma TC and LDL-C levels | effect of lowering cholesterol (screening result in words) [1]: have the effect of lowering cholesterol | efficacy compared with the positive control (in words) ([1]; positive control Ezetimibe): more similar to the positive control | HDL after administration (normal guinea pig; 0.1 mg/kg): 0.47 mmol/L | LDL after administration (normal guinea pig; 0.1 mg/kg): 1.73 mmol/L | TC after administration (normal guinea pig; 0.1 mg/kg): 1.77 ± 0.43 mmol/L | TG after administration (normal guinea pig; 0.1 mg/kg): 0.38 ± 0.05 mmol/L | HDL after administration (normal guinea pig; 0.5 mg/kg): 0.4 mmol/L | LDL after administration (normal guinea pig; 0.5 mg/kg): 1.75 mmol/L | TC after administration (normal guinea pig; 0.5 mg/kg): 1.9 ± 0.2 mmol/L | TG after administration (normal guinea pig; 0.5 mg/kg): 0.44 ± 0.06 mmol/L | HDL after administration (normal guinea pig; 2.5 mg/kg): 0.47 mmol/L | LDL after administration (normal guinea pig; 2.5 mg/kg): 0.86 mmol/L | TC after administration (normal guinea pig; 2.5 mg/kg): 1.17 ± 0.25 mmol/L | TG after administration (normal guinea pig; 2.5 mg/kg): 0.31 ± 0.12 mmol/L | reduction of plasma TC and LDL-C levels (in words) (normal guinea pig; normal guinea pigs): can significantly reduce the plasma TC and LDL-C levels | effect compared with positive control Ezetimibe at the same dose (in words) (normal guinea pig; normal guinea pigs, same dose): the same as that of the positive control

O=C(OC/C(=C\C[C@H]1C(=O)N(c2ccc(F)cc2)[C@@H]1c1ccc(O)cc1)c1ccc(F)cc1)c1ccc(F)cc1 [I-14(Z)]
inhibition in vivo at 1 mg/kg [1, 5]: 28.6% | inhibition in vivo at 1 mg/kg [1, 6]: 13.5% | inhibition in vivo at 3 mg/kg ([1]; Mesocricetus auratus, po, 168 h, Table 8, read-out: Reducing LDL-C %): 52.3% | inhibition in vivo at 3 mg/kg ([1]; Mesocricetus auratus, po, 168 h, Table 8, read-out: Reducing TC %): 44.4% | LDL after administration ([1]; Table 7, 1 mg/kg intragastric): 2.56 mmol/L | TC after administration ([1]; Table 7, 1 mg/kg intragastric): 9.34 mmol/L | LDL after administration ([1]; Table 7, 3 mg/kg intragastric): 2.01 mmol/L | TC after administration ([1]; Table 7, 3 mg/kg intragastric): 6.06 mmol/L | reduction of plasma TC and LDL-C levels (in words) [1, 10]: can significantly reduce the plasma TC and LDL-C levels | effect of lowering cholesterol (screening result in words) [1]: have the effect of lowering cholesterol
